Results reported in patent publication US20210301261A1, “HUMAN LIVER MICROPHYSIOLOGY PLATFORM AND SELF ASSEMBLY LIVER ACINUS MODEL AND METHODS OF THEIR USE” (priority 2014, published 2021).
“Also recorded” adds a separate entry of the source. Like-named read-outs stand apart in the source and are kept apart here.

What was measured:
liver [1] = conditions: cited from earlier work; for liver injury incidents/million prescriptions: human; for Human/Animal Toxicology (findings in words, wrapped cells): in vivo
[2] = in vivo; cited from earlier work
liver [3] = conditions: cited from earlier work
[4] = test system: hepatocytes in SALA model (Cyp3A4 signature metabolite); assay: LC-MS of efflux media: metabolic clearance and metabolite production in SALA model; conditions: 5 μM testosterone in influx media; efflux collected over 24 hr at 5 μl/hr; day 10
Source text: (§1) Efflux media was collected for measurements of organ model health using assays for lactate dehydrogenase (LDH) release, and albumin, and urea synthesis. LDH is released from cells under conditions of cytotoxic damage. Albumin and urea are secreted from functional hepatocytes. The media efflux was also used to monitor the presence of drug and metabolic products for PK. When compounds are included in the microfluidic media, hepatocytes are exposed to the compound and often biotransform them to a chemically distinct product. Mass spectrometry is a specific and sensitive method to observe these changes. Typically, ca. 15 microliters of media is collected for each biochemical and mass spec measurement (flow rate=5 microliters per hour.)

SALA model cells = conditions: human
Source text: as §1
Troglitazone (28 or 180 μM), or caffeine (600 μM, negative control) was introduced into the microfluidic device for 0-28 days.

U937 cells = assay: TNF-alpha release from LPS activated U937 cells; assay type: cell-based, human
[5] = test system: hepatocytes in SALA model; assay: Hepatocyte area measured in real-time with cytochrome C biosensor in SALA model; assay type: cell-based, human
Source text: (§2) Correlation of propidium iodide (PI) uptake with cell area of hepatocytes is illustrated in FIG. 11. The cytochrome C biosensor is used to measure hepatocyte area in order to perform real-time measurements of apoptosis.

[6] = test system: hepatocytes in SALA model; assay: Propidium iodide uptake of hepatocytes in SALA model; assay type: cell-based, human; conditions: 200 μM trovafloxacin co-treated with 1 ug/ml LPS, compared to vehicle
Source text: as §2

[7] = test system: hepatocytes in SALA model; assay: Oxidative stress response in biosensor transduced hepatocytes in SALA model; assay type: cell-based, human; conditions: 0 to 15 hr treatment period
Source text: Image processing at each time point provides kinetic physiological responses is provided in Panel D.

[8] = test system: hepatocytes in SALA model (bile canalicular efflux, BSEP); assay: Bile efflux (CMFDA fluorescence) in SALA model; assay type: cell-based, human; conditions: 50 μM
[9] = test system: hepatocyte sentinel cells; assay: Statistical validation of biosensors in hepatocyte sentinel cells in microplates; assay type: cell-based, human; conditions: 50 μM
Source text: A panel of biosensors was delivered through lentiviral transduction in multiple fluorescent protein colors initially validated in microplates for an acute response. An SSMD level of ≥2 is considered a statistically valid response.

LX-2 stellate cells = conditions: 30 nM
Source text: Day 21 Immunofluorescence images of a SALA liver vehicle treated 21 days, fixed, and reacted against α-Human Collagen type ½ is provided in panel C. […] Nuclei are false colored blue in all images.

Compound: O=c1n(CCCN2CCN(c3cccc(Cl)c3)CC2)nc2ccccn12 [Trazodone]
- liver injury incidents/million prescriptions (liver [1]): 0.21 incidents/million prescriptions
- Human/Animal Toxicology (findings in words, wrapped cells) (liver [1]): extremely rare liver; also recorded: Mild ↑transaminases,
- Cmax [2]: 5000 nM
- MOT (wrapped cells) (liver [3]): No known

Compound: C[C@]12CC[C@H]3[C@@H](CCC4=CC(=O)CC[C@@]43C)[C@@H]1CC[C@@H]2O [testosterone]
- testosterone exits unchanged through the device (ratio of mass area under the curves) [4]: 27%

Compound: CS(=O)(=O)Nc1ccc([N+](=O)[O-])cc1Oc1ccccc1 [Nimesulide]
- LDH leakage, time of peak (SALA model cells; 210 μM): ~5 days

Compound: Lipopolysaccharide [LPS]
- EC50 of TNF-alpha release (U937 cells): 0.7 µg/mL

Compound: N[C@@H]1[C@H]2CN(c3nc4c(cc3F)c(=O)c(C(=O)O)cn4-c3ccc(F)cc3F)C[C@@H]12 [trovafloxacin]
- hepatocyte area ([5]; 200 μM trovafloxacin alone, day 7): decrease in hepatocyte area
- cell area of hepatocytes ([5]; 200 μM trovafloxacin co-treated with 1 ug/ml LPS, compared to vehicle (1% DMSO)): reduction in cell area
- hepatocyte area ([5]; 200 μM trovafloxacin plus 1 ug/ml LPS, day 5): decrease in hepatocyte area
- propidium iodide (PI) uptake [6]: increased PI uptake
- propidium iodide (PI) uptake ([6]; listed as trovofloxacin): increase in propidium iodide uptake

Compound: CCc1nn(CCCN2CCN(c3cccc(Cl)c3)CC2)c(=O)n1CCOc1ccccc1 [Nefazodone]
- ROS generation [7]: increase of ROS generation
- mitochondrial function [7]: decrease in mitochondrial function
- oxidative stress in hepatocytes [7]: induces oxidative stress
- liver injury incidents/million prescriptions (liver [1]): 105 incidents/million incidents/million prescriptions
- Human/Animal Toxicology (findings in words, wrapped cells) (liver [1]): Acute hepatitis; also recorded: Centrilobular (zone 3); also recorded: Cholestasis, apoptosis
- Cmax [2]: 900 nM
- MOT (wrapped cells) (liver [3]): Mitochondrial and ROS and Bile Efflux

Compound: Cc1c(C)c2c(c(C)c1O)CCC(C)(COc1ccc(CC3SC(=O)NC3=O)cc1)O2 (stereo not drawn) [Troglitazone]
- CMFDA dye uptake and efflux in hepatocytes ([8]; 10 day treatment, monitored 60 minutes, compared to vehicle): slower uptake and inhibition of efflux
- hepatocyte retention of dye ([8]; at 60 minutes): increased hepatocyte retention of dye
- SSMD, Bile canalicular efflux (CMFDA) [9]: 11
- liver injury incidents/million prescriptions (liver [1]): Up to 1000 incidents/million prescriptions
- Human/Animal Toxicology (findings in words, wrapped cells) (liver [1]): Moderate to severe; also recorded: Variable necrosis,; also recorded: cholestasis,; also recorded: inflammatory
- Cmax [2]: 1800 nM
- release of LDH, time of peak loss (SALA model cells; 28 μM): ~13 days
- release of LDH, time of peak loss (SALA model cells; 180 μM): ~4 days
- MOT (wrapped cells) (liver [3]): Mitochondrial; also recorded: BSEP inhibitor

Compound: CN(Cc1cnc2nc(N)nc(N)c2n1)c1ccc(C(=O)N[C@@H](CCC(=O)O)C(=O)O)cc1 [methotrexate]
- expression of collagen type 1A2 protein in LX-2 stellate cells (LX-2 stellate cells; day 21, relative to vehicle control): increased
- LX-2 stellate cell division, transmigration and accumulation in hepatocyte layer (LX-2 stellate cells; over 21 days, compared with vehicle (1.0% DMSO)): accelerated rate
